From patent publication US4255183A, “Substituted phenyl urea and herbicides for use in paddy field” (Hokko Chemical Industry Co., Ltd., priority 1977, dated 1981)
Read-outs that look alike come from different tables or passages of the source.

What was measured:
paddy rice [1] = test: whole plant or invertebrate; type: in vivo, paddy rice (Asahi species); conditions: Oryza sativa, 720 h, granule, 30 days; for inhibition at 1000 g/ha: 100 g/10 are; for inhibition at 3000 g/ha: 300 g/10 are; for inhibition at 9000 g/ha: 900 g/10 are
Summary of the method: (§1)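 Barnyardgrass seeded in flooded alluvial paddy soil (~3 cm water) in concrete pots, with 2.5-leaf Asahi rice transplanted before weed emergence. Granules applied at weed 1-leaf or 5-leaf stage. Dry weights measured 30 days after treatment; inhibition rate calculated versus untreated area.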

paddy rice [2] = test: Test Example 3: field test in transplanted paddy field, paddy rice; type: in vivo, paddy rice (Asahi species); conditions: Oryza sativa; 300 g/10 are, granule, applied 25 days after transplantation, examined 60 days after transplantation
Experimental: (§2) In a Wagner pot of 1/500 are, paddy field soil (alluvial soil) was placed and 50 seeds of Echinochloa crus-galli var. oryzicola and 30 seeds of paddy rice were seeded in the surface layer of said soil and the submerging depth was kept at about 1 cm. When Echinochloa crus-galli var. oryzicola reached at the one leaf stage and 5-leaf stage, the emulsion of a predetermined concentration, prepared according to Example 4 was added dropwise. After 30 days from the treatment with the chemical, dry weights of Echinochloa crus-galli var. oryzicola and paddy rice were measured and the inhibition rate was calculated with reference to untreated area. [formula]
In a 10 m^2 paddy field, young seedlings of paddy rice (Asahi species) at the 2,5-leaf stage were transplanted 30 days after the puddling the submerging at the depth of 3-5 cm. 25 Days after the transplantation, when Echinochloa crus-galli var. oryzicola reached 4-leaf stage, a predetermined dose of the granule prepared according to Example 1 was applied. Test results were examined 60 days after the transplantation of paddy rice in the similar manner as in Test Example 1.
Comparative chemicals used were all those commercially available and in the case of the comparative chemical 2, CNP was applied 3 days after the transplantation of paddy rice and after 25 days a mixture of Benthiocarb and Simetryne was applied.

paddy rice [3] = test: Test Example 1: pot test on selectivity, inhibition of paddy rice; type: in vivo; conditions: for inhibition at 750 g/ha / inhibition at 1500 g/ha / inhibition at 3000 g/ha / inhibition at 6000 g/ha / inhibition at 9000 g/ha: Oryza sativa, 720 h; for inhibition at 750 g/ha / inhibition at 1500 g/ha / inhibition at 3000 g/ha / inhibition at 6000 g/ha / inhibition at 9000 g/ha / Inhibition (%) by treatment at 1-leaf stage, paddy rice / Inhibition (%) by treatment at 5-leaf stage, paddy rice: dry weight 30 days after treatment; for selectivity to paddy rice: trans-form, cis-form and mixtures compared
Summary of the method: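 Alluvial paddy soil in pots sown with Echinochloa crus-galli var. oryzicola (50 seeds) and paddy rice (30 seeds), submerged about 1 cm. Dry weights taken 30 days after chemical treatment; inhibition rate calculated relative to untreated area.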

paddy rice [4] = test: Test Example 4: field test in submerged directly seeded paddy field, paddy rice; type: in vivo, paddy rice (Asahi species); conditions: Oryza sativa, 504 h; 300 g/10 are, emulsion, 2- to 3-leaf stage, 21 days after application
Experimental: as §2
In a 10 m^2 paddy field, 30 g of Echinochloa crus-galli var. oryzicola seeds were seeded at the time of puddling and the depth of submerging was kept at 3-5 cm. 3 Days after the puddling, 50 g of paddy rice at the emergence stage (Asahi species) were seeded. When Echinochloa crus-galli var. oryzicola and paddy rice reached a 2- to 3-leaf stage, a predetermined dose of the emulsion prepared according to Example 4 was applied uniformly by means of a manual spraying machine. Test results were examined 21 days after the application of the chemicals in the similar manner as in Test Example 1.
The comparative chemical 1 used was that commercially available and the comparative chemical 2 used was prepared according to Example 4.

Acute fish toxicity = conditions: in vivo; young carp, Official Standard of Ministry of Agriculture & Forestry; read-out: acute fish toxicity TLm
Experimental: (§3) Acute oral toxicity LD50 value of the compound of the invention measured on SD-strain rat is more than 2,000 mg/Kg for any of the trans-form, cis-form and a mixture thereof in equal amount and further acute fish toxicity TLm value (as defined by Official Standard issued from Ministry of Agriculture & Forestry) measured on young carp is more than 20 ppm for any of the above compounds.

[5] = tested on: Echinochloa crus-galli var. oryzicola; test: Test Example 2: concrete pot test on killing effect, Echinochloa crus-galli var. oryzicola; type: in vivo; conditions: Echinochloa crus-galli, 720 h, granule, 30 days after treatment; for inhibition at 1000 g/ha: 100 g/10 are; for inhibition at 3000 g/ha: 300 g/10 are; for inhibition at 9000 g/ha: 900 g/10 are
Summary of the method: as §1

Bulrush = test: Test Example 5: Wagner pot test, herbicidal effect on Bulrush; type: in vivo
Experimental: In a 1/7500 are Wagner pot, sieved paddy field soil (alluvial soil) was charged. Thereafter, in the center portion of the pot, 2 roots of paddy rice (Asahi species) at the 2- to 3-leaf stage were transplanted and 20 seeds of Bulrush per pot were seeded in the surface of the above soil. The pot was submerged at the depth of about 2 cm. The other Dopatrium junceum and umbrella plant were generated naturally. After seeding, when each of the weeds reached the same leaf age as defined in Table 5 given herein, a predetermined concentration of the emulsion prepared according to Example 4 was applied dropwise on the surface of the pot. The test was carried out by repeating the same test three times per area and the results were determined 20 days after the application of the chemicals with regard to the herbicidal effect and chemical injury on paddy rice on the basis of the evaluation index as shown below.
As the comparative chemicals Molinate, Benthiocarb and DCMU, those commercially available were used.
In the above table, the inhibition rate was calculated according to the method as described in Test Example 1.

Acute oral toxicity = conditions: in vivo, SD-strain rat
Experimental: as §3

[6] = rice at 3.5 leaves stage, read-out: Inhibition (%) by treatment at 1-leaf stage of E. crus-galli var. oryzicola, paddy rice
[7] = rice at 7 leaves stage, read-out: Inhibition (%) by treatment at 5-leaf stage of E. crus-galli var. oryzicola, paddy rice
[8] = 75 g/10 are, 1-leaf stage, read-out: Inhibition (%) by treatment at 1-leaf stage, paddy rice
[9] = 75 g/10 are, 5-leaf stage, read-out: Inhibition (%) by treatment at 5-leaf stage, paddy rice
[10] = 150 g/10 are, 1-leaf stage, read-out: Inhibition (%) by treatment at 1-leaf stage, paddy rice
[11] = 150 g/10 are, 5-leaf stage, read-out: Inhibition (%) by treatment at 5-leaf stage, paddy rice
[12] = 300 g/10 are, 1-leaf stage, read-out: Inhibition (%) by treatment at 1-leaf stage, paddy rice
[13] = 300 g/10 are, 5-leaf stage, read-out: Inhibition (%) by treatment at 5-leaf stage, paddy rice
[14] = 600 g/10 are, 1-leaf stage, read-out: Inhibition (%) by treatment at 1-leaf stage, paddy rice
[15] = 600 g/10 are, 5-leaf stage, read-out: Inhibition (%) by treatment at 5-leaf stage, paddy rice
[16] = 900 g/10 are, 1-leaf stage, read-out: Inhibition (%) by treatment at 1-leaf stage, paddy rice
[17] = 900 g/10 are, 5-leaf stage, read-out: Inhibition (%) by treatment at 5-leaf stage, paddy rice
[18] = read-out: Inhibition (%) by treatment at 1-leaf stage of E. crus-galli var. oryzicola, E. crus-galli var. oryzicola
[19] = read-out: Inhibition (%) by treatment at 5-leaf stage of E. crus-galli var. oryzicola, E. crus-galli var. oryzicola
[20] = 300 g/10a, leaf age 3, 20 days after application
[21] = 300 g/10a, leaf age 3-5, 20 days after application
[22] = 600 g/10a, leaf age 3, 20 days after application
[23] = 600 g/10a, leaf age 3-5, 20 days after application

Structure (SMILES): C/C=C/COc1ccc(NC(=O)N(C)C)cc1 [trans-form, 3-(4-trans-crotyloxyphenyl)-1,1-dimethyl urea]
- inhibition at 1000 g/ha (paddy rice [1]; [6]): 0%
- inhibition at 1000 g/ha (paddy rice [1]; [7]): 0%
- inhibition at 3000 g/ha (paddy rice [1]; [6]): 0%
- inhibition at 3000 g/ha (paddy rice [1]; [7]): 0%
- inhibition at 9000 g/ha (paddy rice [1]; [6]): 0%
- inhibition at 9000 g/ha (paddy rice [1]; [7]): 0%
- inhibition at 3000 g/ha (paddy rice [2]): 0%
- inhibition at 750 g/ha (paddy rice [3]; [8]): 0%
- inhibition at 750 g/ha (paddy rice [3]; [9]): 0%
- inhibition at 1500 g/ha (paddy rice [3]; [10]): 0%
- inhibition at 1500 g/ha (paddy rice [3]; [11]): 0%
- inhibition at 3000 g/ha (paddy rice [3]; [12]): 0%
- inhibition at 3000 g/ha (paddy rice [3]; [13]): 0%
- inhibition at 6000 g/ha (paddy rice [3]; [14]): 0%
- inhibition at 6000 g/ha (paddy rice [3]; [15]): 0%
- inhibition at 9000 g/ha (paddy rice [3]; [16]): 2%
- inhibition at 9000 g/ha (paddy rice [3]; [17]): 0%
- selectivity to paddy rice (paddy rice [3]): equivalent
- inhibition at 3000 g/ha (paddy rice [4]): 0%
- LC50 (Acute fish toxicity): > 20 µg/mL
- inhibition at 1000 g/ha [5, 18]: 100%
- inhibition at 1000 g/ha [5, 19]: 100%
- inhibition at 3000 g/ha [5, 18]: 100%
- inhibition at 3000 g/ha [5, 19]: 100%
- inhibition at 9000 g/ha [5, 18]: 100%
- inhibition at 9000 g/ha [5, 19]: 100%
- Weed kill degree, Bulrush (Bulrush; [20]): 5 (100)
- Weed kill degree, Bulrush (Bulrush; [21]): 5 (100)
- Weed kill degree, Bulrush (Bulrush; [22]): 5 (100)
- Weed kill degree, Bulrush (Bulrush; [23]): 5 (100)
- LD50 (Acute oral toxicity): > 2000 mg/kg

Structure (SMILES): C/C=C\COc1ccc(NC(=O)N(C)C)cc1 [cis-form, 3-(4-cis-crotyloxyphenyl)-1,1-dimethyl urea]
- inhibition at 1000 g/ha (paddy rice [1]; [6]): 0%
- inhibition at 1000 g/ha (paddy rice [1]; [7]): 0%
- inhibition at 3000 g/ha (paddy rice [1]; [6]): 0%
- inhibition at 3000 g/ha (paddy rice [1]; [7]): 0%
- inhibition at 9000 g/ha (paddy rice [1]; [6]): 0%
- inhibition at 9000 g/ha (paddy rice [1]; [7]): 0%
- inhibition at 3000 g/ha (paddy rice [2]): 0%
- inhibition at 750 g/ha (paddy rice [3]; [8]): 0%
- inhibition at 750 g/ha (paddy rice [3]; [9]): 0%
- inhibition at 1500 g/ha (paddy rice [3]; [10]): 0%
- inhibition at 1500 g/ha (paddy rice [3]; [11]): 0%
- inhibition at 3000 g/ha (paddy rice [3]; [12]): 0%
- inhibition at 3000 g/ha (paddy rice [3]; [13]): 0%
- inhibition at 6000 g/ha (paddy rice [3]; [14]): 0%
- inhibition at 6000 g/ha (paddy rice [3]; [15]): 0%
- inhibition at 9000 g/ha (paddy rice [3]; [16]): 3%
- inhibition at 9000 g/ha (paddy rice [3]; [17]): 0%
- selectivity to paddy rice (paddy rice [3]): equivalent
- inhibition at 3000 g/ha (paddy rice [4]): 0%
- LC50 (Acute fish toxicity): > 20 µg/mL
- inhibition at 1000 g/ha [5, 18]: 100%
- inhibition at 1000 g/ha [5, 19]: 100%
- inhibition at 3000 g/ha [5, 18]: 100%
- inhibition at 3000 g/ha [5, 19]: 100%
- inhibition at 9000 g/ha [5, 18]: 100%
- inhibition at 9000 g/ha [5, 19]: 100%
- Weed kill degree, Bulrush (Bulrush; [20]): 5 (100)
- Weed kill degree, Bulrush (Bulrush; [21]): 5 (100)
- Weed kill degree, Bulrush (Bulrush; [22]): 5 (100)
- Weed kill degree, Bulrush (Bulrush; [23]): 5 (100)
- LD50 (Acute oral toxicity): > 2000 mg/kg

Structure (SMILES): CC=CCOc1ccc(NC(=O)N(C)C)cc1 [Mixture of trans- and cis-forms 1:1]
- inhibition at 1000 g/ha (paddy rice [1]; [6]): 0%
- inhibition at 1000 g/ha (paddy rice [1]; [7]): 0%
- inhibition at 3000 g/ha (paddy rice [1]; [6]): 0%
- inhibition at 3000 g/ha (paddy rice [1]; [7]): 0%
- inhibition at 9000 g/ha (paddy rice [1]; [6]): 0%
- inhibition at 9000 g/ha (paddy rice [1]; [7]): 0%
- inhibition at 3000 g/ha (paddy rice [2]): 0%
- Inhibition (%) by treatment at 1-leaf stage, paddy rice (paddy rice [3]; 75 g/10 are, 1-leaf stage): 0%
- Inhibition (%) by treatment at 5-leaf stage, paddy rice (paddy rice [3]; 75 g/10 are, 5-leaf stage): 0%
- Inhibition (%) by treatment at 1-leaf stage, paddy rice (paddy rice [3]; 150 g/10 are, 1-leaf stage): 0%
- Inhibition (%) by treatment at 5-leaf stage, paddy rice (paddy rice [3]; 150 g/10 are, 5-leaf stage): 0%
- Inhibition (%) by treatment at 1-leaf stage, paddy rice (paddy rice [3]; 300 g/10 are, 1-leaf stage): 0%
- Inhibition (%) by treatment at 5-leaf stage, paddy rice (paddy rice [3]; 300 g/10 are, 5-leaf stage): 0%
- Inhibition (%) by treatment at 1-leaf stage, paddy rice (paddy rice [3]; 600 g/10 are, 1-leaf stage): 0%
- Inhibition (%) by treatment at 5-leaf stage, paddy rice (paddy rice [3]; 600 g/10 are, 5-leaf stage): 0%
- Inhibition (%) by treatment at 1-leaf stage, paddy rice (paddy rice [3]; 900 g/10 are, 1-leaf stage): 3%
- Inhibition (%) by treatment at 5-leaf stage, paddy rice (paddy rice [3]; 900 g/10 are, 5-leaf stage): 0%
- inhibition at 3000 g/ha (paddy rice [4]): 0%
- LC50 (Acute fish toxicity): > 20 µg/mL
- inhibition at 1000 g/ha [5, 18]: 100%
- inhibition at 1000 g/ha [5, 19]: 100%
- inhibition at 3000 g/ha [5, 18]: 100%
- inhibition at 3000 g/ha [5, 19]: 100%
- inhibition at 9000 g/ha [5, 18]: 100%
- inhibition at 9000 g/ha [5, 19]: 100%
- Weed kill degree, Bulrush (Bulrush; [20]): 5 (100)
- Weed kill degree, Bulrush (Bulrush; [21]): 5 (100)
- Weed kill degree, Bulrush (Bulrush; [22]): 5 (100)
- Weed kill degree, Bulrush (Bulrush; [23]): 5 (100)
- LD50 (Acute oral toxicity): > 2000 mg/kg
